The values below come from ChEMBL document CHEMBL3046226, “Novel glycol benzyl ether herbicides: Herbicidal activity of 3,3a,5,9b-tetrahydro-2H-furo[3,2-c][2]benzopyran derivatives” (2006).

Assay type in all cases: functional
The test system of assay [1] is Echinochloa crus-galli. Put plainly: Herbicidal activity against Echinochloa crus-galli (barnyard grass).
Assay [2] has as its system Echinochloa crus-galli. Put plainly: Herbicidal activity against Echinochloa crus-galli (barnyard grass) assessed as growth rate at 1 g/acre.
The subject of assay [3] is Echinochloa crus-galli. Put plainly: Herbicidal activity against Echinochloa crus-galli (barnyard grass) assessed as growth rate at 30 g/acre.
Assay [4] has as its system Oryza sativa. Put plainly: Phytotoxicity in Oryza sativa (rice) assessed as assessed as growth rate at 30 g/acre by Oryza sativa (rice) injury assay.
Assay [5] concerns Echinochloa crus-galli. Put plainly: Herbicidal activity against Echinochloa crus-galli (barnyard grass) assessed as growth rate at 3 g/acre.
Assay [6] concerns Oryza sativa. Put plainly: Phytotoxicity in Oryza sativa (rice) assessed as assessed as growth rate at 10 g/acre by Oryza sativa (rice) injury assay.

In brackets after ≈: the same amount, converted by molar mass.

Turning to `Cc1ccccc1CO[C@H]1C[C@]2(C(C)C)CC[C@@]1(C)O2` (relative stereo) [REL-CINMETHYLIN], the MIC in the assay on Echinochloa crus-galli [1] was found to be 0.1 µg/mL (≈ 0.364 µM). Moreover, the Activity in the assay on Echinochloa crus-galli [2] stood at 0%; with Echinochloa crus-galli [3] it was 0%; with Oryza sativa [4], 11%; in the assay on Echinochloa crus-galli [5], 0%; in the assay with Oryza sativa [6] it was 41%.

Compound `CC[C@H]1O[C@@H]2c3sccc3COC2[C@H]1OCc1ccccc1C` (single isomer, unassigned) displayed an MIC with Echinochloa crus-galli [1] of 0.1 µg/mL (≈ 0.303 µM). The Activity in the assay on Echinochloa crus-galli [2] is listed as 6%; in the assay with Echinochloa crus-galli [3], 0%; in the assay on Oryza sativa [4], 91%; with Echinochloa crus-galli [5], 0%; in the assay with Oryza sativa [6], 91%.
